# Assay results as given in PubChem BioAssay AID1963965 (Molecular Pharmacology Branch, DTP, NCI, 2024).
# Test system: 996289-038-R-J1-PDC spheroid viability
# Experiment: Anticancer human tumor 996289-038-R-J1-PDC patient-derived colon adenocarcinoma cell line growth inhibition [PI3K]
# Conditions: spheroids with HUVEC and MSC; for IC50: curve of first compound; for viability, T/C: stronger effect = lower value
# How it was run: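 Combination activity was assessed by viability in multicellular tumor spheroids carrying HUVEC and MSC components. Agents were tested with PI3K inhibitors from a Cmax-based top dose (or 10 microM) downward in half-log increments.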
# 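Also: spheroids exposed to compounds for seven days before viability read.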
# 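For viability, T/C in this document: luminescence used as a proxy for viable cell amount; percent viability relative to DMSO vehicle control as 100%.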
compound,measurement,setting,value
CC(Cn1ccc(-c2ccc(C#N)c(Cl)c2)n1)NC(=O)c1cc(C(C)O)[nH]n1 (configuration not stated) + CC(Nc1ccc2c(c1)OCCn1cc(N3C(=O)OCC3C(F)F)nc1-2)C(N)=O,IC50,second compound 0.00316 µM,> 10 µM
same,IC50,second compound 0.01 µM,> 10 µM
same,IC50,second compound 0.0316 µM,> 10 µM
same,IC50,second compound 0.1 µM,> 10 µM
same,IC50,second compound 0.316 µM,> 10 µM
same,IC50,second compound 1 µM,> 10 µM
same,"viability, T/C","second compound 0.00316 µM, first compound 0.0316 µM",86%
same,"viability, T/C","second compound 0.00316 µM, first compound 0.1 µM",108%
same,"viability, T/C","second compound 0.00316 µM, first compound 0.316 µM",98.5%
same,"viability, T/C","second compound 0.00316 µM, first compound 1 µM",112%
same,"viability, T/C","second compound 0.00316 µM, first compound 3.16 µM",96%
same,"viability, T/C","second compound 0.00316 µM, first compound 10 µM",97.4%
same,"viability, T/C","second compound 0.01 µM, first compound 0.0316 µM",92.6%
same,"viability, T/C","second compound 0.01 µM, first compound 0.1 µM",98.4%
same,"viability, T/C","second compound 0.01 µM, first compound 0.316 µM",110%
same,"viability, T/C","second compound 0.01 µM, first compound 1 µM",100%
same,"viability, T/C","second compound 0.01 µM, first compound 3.16 µM",96%
same,"viability, T/C","second compound 0.01 µM, first compound 10 µM",87.1%
same,"viability, T/C","second compound 0.0316 µM, first compound 0.0316 µM",96.8%
same,"viability, T/C","second compound 0.0316 µM, first compound 0.1 µM",101%
same,"viability, T/C","second compound 0.0316 µM, first compound 0.316 µM",89.7%
same,"viability, T/C","second compound 0.0316 µM, first compound 1 µM",93.7%
same,"viability, T/C","second compound 0.0316 µM, first compound 3.16 µM",93.8%
same,"viability, T/C","second compound 0.0316 µM, first compound 10 µM",79.2%
same,"viability, T/C","second compound 0.1 µM, first compound 0.0316 µM",78%
same,"viability, T/C","second compound 0.1 µM, first compound 0.1 µM",79.4%
same,"viability, T/C","second compound 0.1 µM, first compound 0.316 µM",89.1%
same,"viability, T/C","second compound 0.1 µM, first compound 1 µM",82.7%
same,"viability, T/C","second compound 0.1 µM, first compound 3.16 µM",97.1%
same,"viability, T/C","second compound 0.1 µM, first compound 10 µM",76.7%
same,"viability, T/C","second compound 0.316 µM, first compound 0.0316 µM",70.2%
same,"viability, T/C","second compound 0.316 µM, first compound 0.1 µM",73.2%
same,"viability, T/C","second compound 0.316 µM, first compound 0.316 µM",66.7%
same,"viability, T/C","second compound 0.316 µM, first compound 1 µM",73.5%
same,"viability, T/C","second compound 0.316 µM, first compound 3.16 µM",66.7%
same,"viability, T/C","second compound 0.316 µM, first compound 10 µM",72%
same,"viability, T/C","second compound 1 µM, first compound 0.0316 µM",55%
same,"viability, T/C","second compound 1 µM, first compound 0.1 µM",55.1%
same,"viability, T/C","second compound 1 µM, first compound 0.316 µM",68.9%
same,"viability, T/C","second compound 1 µM, first compound 1 µM",63.1%
same,"viability, T/C","second compound 1 µM, first compound 3.16 µM",58%
same,"viability, T/C","second compound 1 µM, first compound 10 µM",58.6%
